Assay [1] deals with T1, human M2 receptor (human Muscarinic receptor subtype 2) (Homo sapiens, UniProt P08172).
T1 construct: purchased Perkin-Elmer RBHM2M; host or cells: Chinese hamster ovary cells (CHO), membranes
T1 sequence (P08172 1-466): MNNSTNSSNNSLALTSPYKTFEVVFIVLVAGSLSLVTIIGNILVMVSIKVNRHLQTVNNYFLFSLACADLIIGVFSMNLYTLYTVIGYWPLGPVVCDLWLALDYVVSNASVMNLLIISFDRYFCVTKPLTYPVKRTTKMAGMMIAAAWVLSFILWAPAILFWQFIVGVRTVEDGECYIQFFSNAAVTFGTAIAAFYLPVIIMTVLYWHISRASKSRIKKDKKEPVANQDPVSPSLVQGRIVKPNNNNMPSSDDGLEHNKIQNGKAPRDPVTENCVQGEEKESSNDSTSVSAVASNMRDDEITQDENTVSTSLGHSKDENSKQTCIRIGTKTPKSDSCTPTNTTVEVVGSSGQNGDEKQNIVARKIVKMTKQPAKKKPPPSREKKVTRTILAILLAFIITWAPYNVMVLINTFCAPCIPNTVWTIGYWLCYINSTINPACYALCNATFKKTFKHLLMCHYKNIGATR
Put plainly: hM2 receptor GTPγS binding. It is filed as biochemical. Particulars: CHO membranes expressing hM2, GTPγ35S binding; for EC50: read-out: hM2_EC50. How it is done: hM2 Receptor GTPyS Binding
Membranes produced from Chinese hamster ovary cells (CHO) expressing the cloned human M2 receptor (human Muscarinic receptor subtype 2, gene bank access NM_000739), were obtained from Perkin-Elmer (RBHM2M). The membranes were thawed at 37° C., passed 3 times through a 23-gauge blunt-end needle, diluted in the GTPγS binding buffer (50 mM Hepes, 20 mM NaOH, 100 mM NaCl, 1 mM EDTA, 5 mM MgCl2, pH 7.4, 100 μM DTT). The EC50, IC50 and Emax of the compounds of the invention were evaluated from 10-point dose-response curves (three fold concentration range) done in 60 μl in 384-well non-specific binding surface plate (Corning). Ten microliters from the dose-response curves plate (5× concentration) were transferred to another 384 well plate containing the following: 10 μg of hM2 membranes, 500 μg of Flashblue beads (Perkin-Elmer) and GDP in a 25 μl volume. An additional 15 μl containing 3.3× (55000 dpm) of GTPγ^35S (0.4 nM final) were added to the wells resulting in a total well volume of 50 μl. Basal and maximal stimulated GTPγ^35S binding was determined in absence and presence of 30 μM of acetylcholine agonist. The membranes/beads mix were pre-incubated for 15 minutes at room temperature with 25 μM GDP prior to distribution in plates (12.5 μM final). The reversal of acetylcholine-induced stimulation (2 μM final) of GTPγ^35S binding was used to assay the antagonist properties (IC50) of the compounds. The plates were incubated for 60 minutes at room temperature with shaking, then centrifuged at 2000 rpm for 5 minutes. The radioactivity (cpm) was counted in a Trilux (Perkin-Elmer).
Values of EC50, IC50 and Emax were obtained using sigmoidal fits of a non-linear curve-fitting program (XLfit version 5.0.6 from ID Business Solutions Limited, Guildford, UK) of percent-stimulated GTPγ^35S binding vs. log (molar ligand).
All EC50 and IC50 values are reported as geometric means of ‘n’ independent experiments. […] The IC50 was the concentration of the compound of the invention at which 50% inhibition of acetylcholine GTPγ^35S binding stimulation has been observed.
A general note: Binding of GTPγS marks nucleotide exchange on a G protein.

Assay [2] concerns the target T2, hM1 (human Muscarinic receptor subtype 1) (Homo sapiens, UniProt P11229).
T2 construct: expressed in transfected cells; host or cells: CHO cells (chinese hamster ovary cells, ATCC)
T2 sequence (P11229 1-460): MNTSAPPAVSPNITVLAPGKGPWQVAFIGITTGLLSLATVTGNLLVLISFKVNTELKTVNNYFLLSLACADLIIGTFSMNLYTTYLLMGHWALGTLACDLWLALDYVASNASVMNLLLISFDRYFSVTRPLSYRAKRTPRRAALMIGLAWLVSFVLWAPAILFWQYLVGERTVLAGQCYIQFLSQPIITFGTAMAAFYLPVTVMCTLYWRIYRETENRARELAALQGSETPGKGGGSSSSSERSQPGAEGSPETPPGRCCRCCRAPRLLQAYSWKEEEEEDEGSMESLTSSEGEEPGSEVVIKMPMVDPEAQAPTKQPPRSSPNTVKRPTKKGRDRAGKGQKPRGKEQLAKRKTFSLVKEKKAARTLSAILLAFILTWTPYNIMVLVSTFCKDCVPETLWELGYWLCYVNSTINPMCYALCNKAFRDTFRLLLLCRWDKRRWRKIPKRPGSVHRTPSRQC
Nature of the assay: Human M1 calcium mobilization FLIPR assay. Type of assay: cell-based. The settings on record: CHO cells expressing hM1, FLIPR; for EC50: read-out: hM1EC50; for Emax: read-out: hM1Emax. How it is done: The compound activity in the present invention (EC50 or IC50) was measured using a 384 plate-based imaging assay that monitors drug induced intracellular Ca^2+ release in whole cells. Activation of hM1 (human Muscarinic receptor subtype 1, gene bank access NM_000738), rM1 (rat Muscarinic receptor subtype 1, gene bank access NM_080773), hM3 (human Muscarinic receptor subtype 3, gene bank access NM_000740NM_000740) and hM5 (human Muscarinic receptor subtype 5, gene bank access NM_0121258) receptors expressed in CHO cells (chinese hamster ovary cells, ATCC) was quantified in a Molecular Devices FLIPR II™ instrument as an increase in fluorescent signal. Inhibition of hM3 and hM5 by compounds was determined by the decrease in fluorescent signal in response to 2 nM acetylcholine activation.
CHO cells were plated in 384-black polylysine coated plate (Costar) at 8000 cells/well/50 μl for 24 hours or 4000 cells/well for 48 hours in a humidified incubator (5% CO2 and 37° C.) in DMEM/F12 medium without selection agent. Prior to the experiment the cell culture medium was removed from the plates by inversion. A loading solution of 30 μl of Hank's balanced salt solution, 10 mM Hepes and 2.5 mM Probenicid at Ph 7.4 (Cat no. 311-520-VL, Wisent) with 2 μM calcium indicator dye (FLUO-3AM, Molecular Probes F14202) was added to each well. Plates were incubated at 37° C. for 60 minutes prior to start the experiment. The incubation was terminated by washing the cells four times in assay buffer, leaving a residual 25 μl buffer per well. Cell plates were then transferred to the FLIPR, ready for compound additions.
The day of experiment, acetylcholine and compounds were diluted in three-fold concentration range (10 points serial dilution) for addition by FLIPR instrument. For all calcium assays, a baseline reading was taken for 30 seconds followed by the addition of 12.5 μl (25 μl for hM1 and rM1) of compounds, resulting in a total well volume of 37.5 μl (50 μl for hM1 and rM1). Data were collected every 1.6 seconds for 300 seconds. For hM3 and hM5 an additional 12.5 μl of acetylcholine (2 nM final) was added at 300 seconds. After this addition of acetylcholine (producing a final volume of 50 μl), the FLIPR continued to collect data every 2 seconds for 240 seconds. The fluorescence emission was read using filter 1 (emission 520-545 nm) by the FLIPR on board CCD camera.
Calcium mobilization output data were calculated as the maximal relative fluorescence unit (RFU) minus the minimal value for both compound and agonist reading frame (except for hM1 and rM1 using only the maximal RFU). Data were analyzed using sigmoidal fits of a non-linear curve-fitting program (XLfit version 5.0.6 from ID Business Solutions Limited, Guildford, UK). All EC50 and IC50 values are reported as geometric means of ‘n’ independent experiments.
A general note: A change in cytosolic calcium serves as a functional read-out for many receptors and channels.

In the case of `CCOC[C@@H]1CCCN(C[C@H]2CCCC[C@@H]2NC(=O)c2ccc(CNS(=O)(=O)C3CC3)cc2)C1`, in assay [1], the Emax is 40% and the EC50 was found to be 1430 nM. Besides, in assay [2], the EC50 came out at 11 nM and the Emax turned out to be 102%.

Take `O=C(N[C@H]1CCCC[C@@H]1CN1CCCC(c2ccccc2)C1)c1ccc(-n2cccn2)nc1` (some centres unmarked): in assay [2], the EC50 came to 393 nM and the Emax was 105%.

For the molecule `CCOC[C@@H]1CCCN(C[C@H]2CCCC[C@@H]2NC(=O)CNC(C)=O)C1`, in assay [2], the EC50 amounted to 322 nM and the Emax was found to be 91%.

`CCO[C@@H]1CCCN(C[C@H]2CCCC[C@@H]2NC(=O)c2cnccn2)C1`: in assay [2], the EC50 came to 1500 nM and the Emax was 76%.

Consider `CCOCC1CCCN(C[C@@H]2CCCC[C@H]2NC(=O)c2ccc(-c3cnco3)cc2)C1` (mixture of isomers), for which, in assay [1], the Emax worked out at 25% and the EC50 is 5480 nM. Moreover, in assay [2], the EC50 worked out at 17 nM and the Emax is 97%.

`CCCCC1CCCN(C[C@@H]2CCCC[C@H]2NC(=O)CCc2ccc(Cl)cc2)C1` (mixture of isomers): in assay [1], the Emax was found to be 38% and the EC50 was 1230 nM. In assay [2], the EC50 came to 174 nM and the Emax was found to be 86%.

In the case of `CCCCC1CCCN(C[C@@H]2CCCC[C@H]2NC(=O)c2ccc(CN(CC)CC)cc2)C1` (mixture of isomers), in assay [1], the Emax worked out at 2% and the EC50 came to 165 nM. Moreover, in assay [2], the EC50 worked out at 103 nM and the Emax was found to be 94%.

For the molecule `C=CCOCC1CCCN(C[C@@H]2CCCC[C@H]2NC(=O)c2ccc(CN3CCN(C)CC3)cc2)C1` (mixture of isomers) [Trans-(±)-N-[2-({3-[(Allyloxy)methyl]piperidin-1-yl}methyl)cyclohexyl]-4-[(4-methylpiperazin-1-yl)methyl]benzamide], in assay [1], the Emax was determined as 19% and the EC50 turned out to be 390 nM. For the same molecule, in assay [2], the EC50 amounted to 49 nM and the Emax came out at 80%.

Take `CCOC[C@@H]1CCCN(C[C@H]2CCCC[C@@H]2NC(=O)c2ccc(CN(C(C)=O)C(C)=O)cc2)C1` [4-[(diacetylamino)methyl]-N-((1S,2R)-2-{[(3R)-3-(ethoxymethyl)piperidin-1-yl]methyl}cyclohexyl)benzamide]: in assay [1], the Emax was determined as 18% and the EC50 turned out to be 3300 nM. In addition, in assay [2], the EC50 turned out to be 103 nM and the Emax worked out at 91%.

On to `C=CCO[C@@H]1CCCN(C[C@H]2CCCC[C@@H]2NC(=O)c2ccc(-n3cccn3)nc2)C1` [N-((1S,2R)-2-{[(3R)-3-(allyloxy)piperidin-1-yl]methyl}cyclohexyl)-6-(1H-pyrazol-1-yl)nicotinamide], for which, in assay [1], the Emax amounted to 50% and the EC50 was 4450 nM. Moreover, in assay [2], the EC50 was determined as 33 nM and the Emax was 97%.

As for `CCOC[C@@H]1CCCN(C[C@H]2CCCC[C@@H]2NC(=O)c2cnc(C)cc2C)C1` [N-((1S,2R)-2-{[(3R)-3-(ethoxymethyl)piperidin-1-yl]methyl}cyclohexyl)-4,6-dimethylnicotinamide], in assay [2], the EC50 came to 504 nM and the Emax came to 54%.

As to `CCOC[C@@H]1CCCN(C[C@H]2CCCC[C@@H]2NC(=O)c2ccc(-n3cnnn3)cc2)C1` [N-((1S,2R)-2-{[(3R)-3-(ethoxymethyl)piperidin-1-yl]methyl}cyclohexyl)-4-(1H-tetrazol-1-yl)benzamide], in assay [1], the Emax worked out at 27% and the EC50 came to 1210 nM. Also, in assay [2], the EC50 is 9 nM and the Emax worked out at 95%.

Consider `CCOC[C@@H]1CCCN(C[C@H]2CCCC[C@@H]2NC(=O)c2ccc3c(c2)OCCN3C)C1` [N-((1S,2R)-2-{[(3R)-3-(ethoxymethyl)piperidin-1-yl]methyl}cyclohexyl)-4-methyl-3,4-dihydro-2H-1,4-benzoxazine-7-carboxamide], for which, in assay [1], the Emax came out at 0% and the EC50 is over 30000 nM. Further, in assay [2], the EC50 turned out to be 152 nM and the Emax worked out at 85%.

In the case of `CCOC[C@@H]1CCCN(C[C@H]2CCCC[C@@H]2NC(=O)c2ccc(CNS(C)(=O)=O)cc2)C1` [N-((1S,2R)-2-{[(3R)-3-(ethoxymethyl)piperidin-1-yl]methyl}cyclohexyl)-4-{[(methylsulfonyl)amino]methyl}benzamide], the Emax in assay [1] worked out at 34%; in assay [2], 95%. For the same molecule, the EC50 in assay [1] stood at 1340 nM; in assay [2] it was 20 nM.

With `CCOC[C@@H]1CCCN(C[C@H]2CCCC[C@@H]2NC(=O)c2cc3nc(C)cc(C)n3n2)C1` [N-((1S,2R)-2-{[(3R)-3-(ethoxymethyl)piperidin-1-yl]methyl}cyclohexyl)-5,7-dimethylpyrazolo[1,5-a]pyrimidine-2-carboxamid], in assay [1], the Emax stood at 0% and the EC50 was over 30000 nM. Also, in assay [2], the EC50 came to 22 nM and the Emax was determined as 82%.

For `CCOC[C@@H]1CCCN(C[C@H]2CCCC[C@@H]2NC(=O)c2ccc(N3CCCC3)nc2)C1` [N-((1S,2R)-2-{[(3R)-3-(ethoxymethyl)piperidin-1-yl]methyl}cyclohexyl)-6-pyrrolidin-1-ylnicotinamide], in assay [1], the Emax amounted to 60% and the EC50 came to 107 nM. Further, in assay [2], the EC50 came to 41 nM and the Emax was found to be 91%.

Values taken from US20070259888A1, “Novel Compounds” (ASTRAZENECA AB, priority 2006, published 2007).
